From US20240270750A1, “IMIDAZOLE-CONTAINING INHIBITORS OF ALK2 KINASE” (BioCryst Pharmaceuticals, Inc., priority 2021, published 2024) come the findings set out here.

Counter-ions that a name gives are not always drawn.

The target in the experiment is T1, ALK2 (Homo sapiens, UniProt Q04771).
T1 construct: purchased ThermoFisher Scientific (Life Technologies)
T1 sequence (Q04771 21-509): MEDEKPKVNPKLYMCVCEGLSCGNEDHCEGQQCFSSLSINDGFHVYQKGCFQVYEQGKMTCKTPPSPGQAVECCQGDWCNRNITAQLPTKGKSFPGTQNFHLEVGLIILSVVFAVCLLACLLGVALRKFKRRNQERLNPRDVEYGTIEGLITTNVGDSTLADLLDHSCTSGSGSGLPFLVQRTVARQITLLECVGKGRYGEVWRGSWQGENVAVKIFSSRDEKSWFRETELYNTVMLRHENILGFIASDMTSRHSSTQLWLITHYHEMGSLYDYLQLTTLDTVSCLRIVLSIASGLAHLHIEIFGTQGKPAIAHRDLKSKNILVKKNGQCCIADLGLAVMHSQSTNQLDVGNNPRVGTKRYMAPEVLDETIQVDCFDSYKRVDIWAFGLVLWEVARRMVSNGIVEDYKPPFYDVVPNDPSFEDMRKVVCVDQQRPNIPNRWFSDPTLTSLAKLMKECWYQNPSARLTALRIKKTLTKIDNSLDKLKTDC
The experiment is described as follows: LanthaScreen Eu Kinase Binding Assay, ALK2 inhibition. To be noted: 1 micromolar concentration. Here is the method: Biochemical assays to measure the inhibitory effects of the compounds were performed by ThermoFisher Scientific (Life Technologies). ALK2 inhibition was tested using LanthaScreen™ Eu Kinase Binding Assay screening protocol.
Background: In TR-FRET formats the signal depends on donor and acceptor labels being close together.

`CCn1ncc2c(Nc3cn(-c4cc(OC)c(OC)c(OC)c4)cn3)nc(CC3CC3)nc21` [Compound 124e, 6-(cyclopropylmethyl)-1-ethyl-N-(1-(3,4,5-trimethoxyphenyl)-1H-imidazol-4-yl)-1H-pyrazolo[3,4-d]pyrimidin-4-amine] showed an inhibition at 1 µM above 50%.
In the case of `COc1cc(-n2cnc(Nc3nc(C4CC4)nc4c3cnn4C)c2)cc(OC)c1OC` [Compound 114e, 6-cyclopropyl-1-methyl-N-(1-(3,4,5-trimethoxyphenyl)-1H-imidazol-4-yl)-1H-pyrazolo[3,4-d]pyrimidin-4-amine], the inhibition at 1 µM is above 50%.
`C=C(C)c1nc(Nc2cn(-c3cc(OC)c(OC)c(OC)c3)cn2)c2cccn2n1` [Compound 61c, 2-(prop-1-en-2-yl)-N-(1-(3,4,5-trimethoxyphenyl)-1H-imidazol-4-yl)pyrrolo[2,1-f][1,2,4]triazin-4-amine] had an inhibition at 1 µM above 50%.
Then `COc1cc(-n2cnc(Nc3nc(CC(C)C)nc4c3cnn4C(C)C)c2)cc(OC)c1OC` [Compound 6a, 6-isobutyl-1-isopropyl-N-(1-(3,4,5-trimethoxyphenyl)-1H-imidazol-4-yl)-1H-pyrazolo[3,4-d]pyrimidin-4-amine], with above 50%; and `COc1cc(-n2cnc(Nc3nc(C4CC(F)(F)C4)nc4c3cnn4C(C)C)c2)cc(OC)c1OC` [Compound 28e, 6-(3,3-difluorocyclobutyl)-1-isopropyl-N-(1-(3,4,5-trimethoxyphenyl)-1H-imidazol-4-yl)-1H-pyrazolo[3,4-d]pyrimidin-4-amine], with above 50%; and `COc1cc(-n2cnc(Nc3nc(C(C)C)nc4cc(C)sc34)c2)cc(OC)c1OC` [Compound 85a, 2-isopropyl-6-methyl-N-(1-(3,4,5-trimethoxyphenyl)-1H-imidazol-4-yl)thieno[3,2-d]pyrimidin-4-amine], with above 50%.
`COc1cc(-n2cnc(Nc3nc(C)nc4c3cnn4C(C)C)c2)cc(OC)c1OC` [Compound 31b, 1-isopropyl-6-methyl-N-(1-(3,4,5-trimethoxyphenyl)-1H-imidazol-4-yl)-1H-pyrazolo[3,4-d]pyrimidin-4-amine] gave an inhibition at 1 µM above 50%.
`COc1cc(-n2cnc(Nc3nc(C(C)C)nc4cccnc34)c2)cc(OC)c1OC` [Compound 83a, 2-isopropyl-N-(1-(3,4,5-trimethoxyphenyl)-1H-imidazol-4-yl)pyrido[3,2-d]pyrimidin-4-amine] displayed an inhibition at 1 µM above 50%.
With `COc1cc2nc(Nc3cn(-c4cc(OC)c(OC)c(OC)c4)cn3)nc(C(C)C)c2cc1OC` [Compound 87a, 4-isopropyl-6,7-dimethoxy-N-(1-(3,4,5-trimethoxyphenyl)-1H-imidazol-4-yl)quinazolin-2-amine], the inhibition at 1 µM was above 50%.
For `COc1cc(-n2cnc(Nc3nc(C(C)C)nc4ccsc34)c2)cc(OC)c1OC` [Compound 52b, 2-isopropyl-N-(1-(3,4,5-trimethoxyphenyl)-1H-imidazol-4-yl)thieno[3,2-d]pyrimidin-4-amine hydrochloride], the inhibition at 1 µM was above 50%.
`COc1cc(-n2cnc(Nc3nc(CC4CC4)nc4c3cnn4C)c2)cc(OC)c1OC` [Compound 125e, 6-(cyclopropylmethyl)-1-methyl-N-(1-(3,4,5-trimethoxyphenyl)-1H-imidazol-4-yl)-1H-pyrazolo[3,4-d]pyrimidin-4-amine] came in with an inhibition at 1 µM above 50%.
The compound `COc1cc(-n2cnc(Nc3nc(C(C)CC(=O)NC4CC4)nc4c3cnn4C(C)C)c2)cc(OC)c1OC` (centres unmarked) [Compound 107a, N-cyclopropyl-3-(1-isopropyl-4-((1-(3,4,5-trimethoxyphenyl)-1H-imidazol-4-yl)amino)-1H-pyrazolo[3,4-d]pyrimidin-6-yl)butanamide] displayed an inhibition at 1 µM above 50%.
`COc1cc(-n2cnc(Nc3nc(C4CCN(C(=O)OC(C)(C)C)C4)nc4c3cnn4C(C)C)c2)cc(OC)c1OC` (centres unmarked) [Compound 41a, tert-butyl 3-(1-isopropyl-4-((1-(3,4,5-trimethoxyphenyl)-1H-imidazol-4-yl)amino)-1H-pyrazolo[3,4-d]pyrimidin-6-yl)pyrrolidine-1-carboxylate] registered an inhibition at 1 µM above 50%.
For `COc1cc(-n2cnc(Nc3nc(C(C)C)nc4c3ccn4C(C)C)c2)cc(OC)c1OC` [Compound 98a, 2,7-diisopropyl-N-(1-(3,4,5-trimethoxyphenyl)-1H-imidazol-4-yl)-7H-pyrrolo[2,3-d]pyrimidin-4-amine], the inhibition at 1 µM was above 50%.
Then `COc1cc(-n2cnc(Nc3nc(C4CCCC4)nc4c3cnn4C(C)C)c2)cc(OC)c1OC` [Compound 44e, 6-cyclopentyl-1-isopropyl-N-(1-(3,4,5-trimethoxyphenyl)-1H-imidazol-4-yl)-1H-pyrazolo[3,4-d]pyrimidin-4-amine], with above 50%; and `COc1cc(-n2cnc(Nc3nc(C(C)CC(O)CO)nc4c3cnn4C(C)C)c2)cc(OC)c1OC` (centres unmarked) [Compound 47a, 4-(1-isopropyl-4-((1-(3,4,5-trimethoxyphenyl)-1H-imidazol-4-yl)amino)-1H-pyrazolo[3,4-d]pyrimidin-6-yl)pentane-1,2-diol], with above 50%.
Then `C=CCC(C)c1nc(Nc2cn(-c3cc(OC)c(OC)c(OC)c3)cn2)c2cnn(C(C)C)c2n1` (centres unmarked) [Compound 27f, 1-isopropyl-6-(pent-4-en-2-yl)-N-(1-(3,4,5-trimethoxyphenyl)-1H-imidazol-4-yl)-1H-pyrazolo[3,4-d]pyrimidin-4-amine], with above 50%; and `C=C(C)c1nc(Nc2cn(-c3cc(OC)c(OC)c(OC)c3)cn2)c2ccc(OC)cc2n1` [Compound 64c, 7-methoxy-2-(prop-1-en-2-yl)-N-(1-(3,4,5-trimethoxyphenyl)-1H-imidazol-4-yl)quinazolin-4-amine], with above 50%; and `CCC(C)c1nc(Nc2cn(-c3cc(OC)c(OC)c(OC)c3)cn2)c2cnn(C(C)C)c2n1` (centres unmarked) [Compound 33d, 6-(sec-butyl)-1-isopropyl-N-(1-(3,4,5-trimethoxyphenyl)-1H-imidazol-4-yl)-1H-pyrazolo[3,4-d]pyrimidin-4-amine], with above 50%.
Then `COc1cc(-n2cnc(Nc3nc(C4CC4)nc4c(C(C)C)cnn34)c2)cc(OC)c1OC` [Compound 111d, 2-cyclopropyl-8-isopropyl-N-(1-(3,4,5-trimethoxyphenyl)-1H-imidazol-4-yl)pyrazolo[1,5-a][1,3,5]triazin-4-amine], with above 50%.
In the case of `COc1cc(-n2cnc(Nc3nc(C(C)C)nc4c3OCC4)c2)cc(OC)c1OC` [Compound 69a, 2-isopropyl-N-(1-(3,4,5-trimethoxyphenyl)-1H-imidazol-4-yl)-6,7-dihydrofuro[3,2-d]pyrimidin-4-amine], the inhibition at 1 µM was above 50%.
Then `COc1cc(-n2cnc(Nc3nc(C(C)C)nc4c3cnn4C(C)(C)C)c2)cc(OC)c1OC` [Compound 2d, 1-(tert-butyl)-6-isopropyl-N-(1-(3,4,5-trimethoxyphenyl)-1H-imidazol-4-yl)-1H-pyrazolo[3,4-d]pyrimidin-4-amine], with above 50%; and `COc1cc(-n2cnc(Nc3nc(C(C)C)c4ccsc4n3)c2)cc(OC)c1OC` [Compound 91a, 4-isopropyl-N-(1-(3,4,5-trimethoxyphenyl)-1H-imidazol-4-yl)thieno[2,3-d]pyrimidin-2-amine], with above 50%; and `COc1cc(-n2cnc(Nc3nc(C(C)CC(=O)NCCO)nc4c3cnn4C(C)C)c2)cc(OC)c1OC` (centres unmarked) [Compound 109a, N-(2-hydroxyethyl)-3-(1-isopropyl-4-((1-(3,4,5-trimethoxyphenyl)-1H-imidazol-4-yl)amino)-1H-pyrazolo[3,4-d]pyrimidin-6-yl)butanamide], with below 50%.
Then `COc1cc(-n2cnc(Nc3nc(C(C)C)nc4c3cnn4CC(C)C)c2)cc(OC)c1OC` [Compound 20c, 1-isobutyl-6-isopropyl-N-(1-(3,4,5-trimethoxyphenyl)-1H-imidazol-4-yl)-1H-pyrazolo[3,4-d]pyrimidin-4-amine], with above 50%; and `COc1cc(-n2cnc(Nc3nc(C(C)C)c4cnn(C(C)C)c4n3)c2)cc(OC)c1OC` [Compound 8b, 1,4-diisopropyl-N-(1-(3,4,5-trimethoxyphenyl)-1H-imidazol-4-yl)-1H-pyrazolo[3,4-d]pyrimidin-6-amine], with above 50%.
For `CCCCCn1ncc2c(Nc3cn(-c4cc(OC)c(OC)c(OC)c4)cn3)nc(C(C)C)nc21` [Compound 16c, 6-isopropyl-1-pentyl-N-(1-(3,4,5-trimethoxyphenyl)-1H-imidazol-4-yl)-1H-pyrazolo[3,4-d]pyrimidin-4-amine], the inhibition at 1 µM is above 50%.
Regarding `COc1cc(-n2cnc(Nc3nc(C(C)C)nc4c3cnn4-c3ccccc3)c2)cc(OC)c1OC` [Compound 39d, 6-isopropyl-1-phenyl-N-(1-(3,4,5-trimethoxyphenyl)-1H-imidazol-4-yl)-1H-pyrazolo[3,4-d]pyrimidin-4-amine], the inhibition at 1 µM was above 50%.
Consider `COc1cc(-n2cnc(Nc3nc(CO)nc4c3cnn4C(C)C)c2)cc(OC)c1OC` [Compound 36e, (1-isopropyl-4-((1-(3,4,5-trimethoxyphenyl)-1H-imidazol-4-yl)amino)-1H-pyrazolo[3,4-d]pyrimidin-6-yl)methanol], for which the inhibition at 1 µM was above 50%.

One may read the inhibition as how much of the control response was suppressed. Higher therefore signals strong suppression.
